SMILES strings stand for the structures. A value given as a limit tells only on which side of the number the result lay.

The target in the test is T1, Zcchc11 enzyme (Homo sapiens, UniProt Q5TAX3).
T1 construct: made in house; host or cells: HEK293 cells (Zcchc11); E. coli Rosetta II (LIN28A)
T1 sequence (Q5TAX3 212-1420): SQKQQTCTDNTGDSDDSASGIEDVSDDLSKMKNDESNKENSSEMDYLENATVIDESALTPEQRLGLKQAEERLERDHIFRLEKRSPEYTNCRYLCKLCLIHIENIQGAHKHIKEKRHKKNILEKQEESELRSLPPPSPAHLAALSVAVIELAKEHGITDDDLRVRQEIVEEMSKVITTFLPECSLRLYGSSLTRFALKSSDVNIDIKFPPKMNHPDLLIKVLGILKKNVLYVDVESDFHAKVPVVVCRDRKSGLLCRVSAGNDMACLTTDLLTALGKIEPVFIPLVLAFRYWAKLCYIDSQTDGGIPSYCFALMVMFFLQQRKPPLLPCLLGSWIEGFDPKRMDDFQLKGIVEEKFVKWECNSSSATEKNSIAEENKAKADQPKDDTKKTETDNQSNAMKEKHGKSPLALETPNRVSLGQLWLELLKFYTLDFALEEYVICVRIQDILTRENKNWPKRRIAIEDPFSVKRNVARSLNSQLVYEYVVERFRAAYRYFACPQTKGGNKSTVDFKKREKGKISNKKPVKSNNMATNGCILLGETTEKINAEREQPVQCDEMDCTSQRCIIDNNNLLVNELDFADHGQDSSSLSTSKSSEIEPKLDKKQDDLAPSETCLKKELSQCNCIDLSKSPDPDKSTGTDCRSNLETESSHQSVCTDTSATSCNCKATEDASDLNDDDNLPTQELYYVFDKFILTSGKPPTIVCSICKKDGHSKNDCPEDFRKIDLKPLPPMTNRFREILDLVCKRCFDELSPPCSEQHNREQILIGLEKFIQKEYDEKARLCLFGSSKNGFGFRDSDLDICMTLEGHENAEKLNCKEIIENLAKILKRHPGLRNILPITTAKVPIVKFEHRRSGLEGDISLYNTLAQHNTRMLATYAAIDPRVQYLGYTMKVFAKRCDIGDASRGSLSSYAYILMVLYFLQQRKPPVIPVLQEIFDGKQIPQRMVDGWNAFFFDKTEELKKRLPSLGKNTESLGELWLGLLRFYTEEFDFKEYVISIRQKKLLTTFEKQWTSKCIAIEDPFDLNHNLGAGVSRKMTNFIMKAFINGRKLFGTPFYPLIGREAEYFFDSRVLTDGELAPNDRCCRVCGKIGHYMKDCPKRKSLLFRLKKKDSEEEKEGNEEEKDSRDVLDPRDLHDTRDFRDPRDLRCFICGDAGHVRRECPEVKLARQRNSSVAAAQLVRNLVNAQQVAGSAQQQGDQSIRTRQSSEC
The experiment in a line: TUTase assay (Zcchc11 assay, Lin28a-dependent polyuridylation of pre-let-7). It is filed as biochemical. Conditions: Lin28a-dependent Zcchc11 (Z11) TUTase assay; read-out: Potency Lin28a-dep Z11 IC50. The essentials: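 HEK293-expressed human Zcchc11 (residues 212-1420, 0.2 nM) with 10 nM LIN28A and 2 nM 5′-fluorescein pre-let-7, preincubated 30 min at room temperature, pH 7.3. Started with 5 uM UTP; poly(U) tails quenched by 3′-rhodamine A20 probe, read kinetically. IC50 from early-rate four-parameter fit; no-UTP wells define 0%.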

The IC50 is the concentration that gives 50% inhibition. In the case of `O=C(O)c1cn(-c2ccc(N3CCC3)nc2)c2cc(N3CCC[C@H]3COc3ncccc3Cl)c(Cl)cc2c1=O` [Example 516, (S)-1-(6-(azetidin-1-yl)pyridin-3-yl)-6-chloro-7-(2-(((3-chloropyridin-2-yl)oxy)methyl)pyrrolidin-1-yl)-4-oxo-1,4-dihydroquinoline-3-carboxylic acid], the IC50 is ≤ 1000 nM.
The figure for `CN(C)C1CN(c2ccc(-n3cc(C(=O)O)c(=O)c4cc(Cl)c(N5CCC[C@H]5COc5ncccc5Cl)cc43)cn2)C1` [Example 517, (S)-6-chloro-7-(2-(((3-chloropyridin-2-yl)oxy)methyl)pyrrolidin-1-yl)-1-(6-(3-(dimethylamino)azetidin-1-yl)pyridin-3-yl)-4-oxo-1,4-dihydroquinoline-3-carboxylic acid] is ≤ 1000 nM; for `Nc1ccc(-n2cc(C(=O)O)c(=O)c3cc(Cl)c(N4CCC[C@@H]4COc4ncccc4Cl)cc32)c(F)n1` [Example 518, (R)-1-(6-amino-2-fluoropyridin-3-yl)-6-chloro-7-(2-(((3-chloropyridin-2-yl)oxy)methyl)pyrrolidin-1-yl)-4-oxo-1,4-dihydroquinoline-3-carboxylic acid] it is ≤ 1000 nM; for `O=C(O)c1cn(-c2cnccn2)c2cc(N3C[C@@H](F)C[C@H]3COc3ncccc3Cl)c(Cl)cc2c1=O` [Example 519, 6-chloro-7-((2S,4S)-2-(((3-chloropyridin-2-yl)oxy)methyl)-4-fluoropyrrolidin-1-yl)-4-oxo-1-(pyrazin-2-yl)-1,4-dihydroquinoline-3-carboxylic acid] it is ≤ 1000 nM.
Next, `CN1CC2(C1)CN(c1ccc(-n3cc(C(=O)O)c(=O)c4cc(Cl)c(N5CCC[C@@H]5COc5ncccc5Cl)cc43)cn1)C2` [Example 520, (R)-6-chloro-7-(2-(((3-chloropyridin-2-yl)oxy)methyl)pyrrolidin-1-yl)-1-(6-(6-methyl-2,6-diazaspiro[3.3]heptan-2-yl)pyridin-3-yl)-4-oxo-1,4-dihydroquinoline-3-carboxylic acid]: ≤ 1000 nM.
Next, `CN(C)[C@H]1CCN(c2ccc(-n3cc(C(=O)O)c(=O)c4cc(Cl)c(N5CCC[C@@H]5COc5ncccc5Cl)cc43)cn2)C1` [Example 521, 6-chloro-7-((R)-2-(((3-chloropyridin-2-yl)oxy)methyl)pyrrolidin-1-yl)-1-(6-((S)-3-(dimethylamino)pyrrolidin-1-yl)pyridin-3-yl)-4-oxo-1,4-dihydroquinoline-3-carboxylic acid]: ≤ 1000 nM; `CN(C)[C@@H]1CCN(c2ccc(-n3cc(C(=O)O)c(=O)c4cc(Cl)c(N5CCC[C@@H]5COc5ncccc5Cl)cc43)cn2)C1` [Example 522, 6-chloro-7-((R)-2-(((3-chloropyridin-2-yl)oxy)methyl)pyrrolidin-1-yl)-1-(6-((R)-3-(dimethylamino)pyrrolidin-1-yl)pyridin-3-yl)-4-oxo-1,4-dihydroquinoline-3-carboxylic acid]: ≤ 1000 nM.
For the molecule `CN1CC2CN(c3ccc(-n4cc(C(=O)O)c(=O)c5cc(Cl)c(N6CCC[C@@H]6COc6ncccc6Cl)cc54)cn3)CC2C1` (stereo partly drawn) [Example 523, 6-chloro-7-((R)-2-(((3-chloropyridin-2-yl)oxy)methyl)pyrrolidin-1-yl)-1-(6-(5-methylhexahydro-pyrrolo[3,4-c]pyrrol-2(1H)-yl)pyridin-3-yl)-4-oxo-1,4-dihydroquinoline-3-carboxylic acid], the IC50 is ≤ 1000 nM.
Next, `COc1cc2c(=O)c(C(=O)O)cn(-c3ccc(N4CC(N(C)C)C4)nc3)c2cc1N1CCC[C@@H]1COc1ncccc1Cl` [Example 524, (R)-7-(2-(((3-chloropyridin-2-yl)oxy)methyl)pyrrolidin-1-yl)-1-(6-(3-(dimethylamino)azetidin-1-yl)pyridin-3-yl)-6-methoxy-4-oxo-1,4-dihydroquinoline-3-carboxylic acid]: 1000 to 10000 nM.
The figure for `O=C(O)c1cn(-c2ccc(N3CCCC3=O)nc2)c2nc(N3CCC[C@@H]3COc3ncccc3Cl)c(Cl)cc2c1=O` [Example 525, (R)-6-chloro-7-(2-(((3-chloropyridin-2-yl)oxy)methyl)pyrrolidin-1-yl)-4-oxo-1-(6-(2-oxopyrrolidin-1-yl)pyridin-3-yl)-1,4-dihydro-1,8-naphthyridine-3-carboxylic acid] is ≤ 1000 nM; for `CN(C)C1CN(c2ccc(-n3cc(C(=O)O)c(=O)c4cc(Cl)c(N5CCC[C@@H]5COc5ncccc5F)cc43)cn2)C1` [Example 526, (R)-6-chloro-1-(6-(3-(dimethylamino)azetidin-1-yl)pyridin-3-yl)-7-(2-(((3-fluoropyridin-2-yl)oxy)methyl)pyrrolidin-1-yl)-4-oxo-1,4-dihydroquinoline-3-carboxylic acid] it is ≤ 1000 nM.
The figure for `O=C(O)c1cn(-c2ccc(N3CC4CNCC4C3)nc2)c2cc(N3CCC[C@@H]3COc3ncccc3Cl)c(Cl)cc2c1=O` (stereo partly drawn) [Example 527, 6-chloro-7-((R)-2-(((3-chloropyridin-2-yl)oxy)methyl)pyrrolidin-1-yl)-1-(6-(hexahydro-pyrrolo[3,4-c]pyrrol-2(1H)-yl)pyridin-3-yl)-4-oxo-1,4-dihydroquinoline-3-carboxylic acid acid] is ≤ 1000 nM; for `Cc1cc2c(=O)c(C(=O)O)cn(-c3ccc(N4CC(N(C)C)C4)nc3)c2cc1N1CCC[C@@H]1COc1ncccc1F` [Example 528, (R)-1-(6-(3-(dimethylamino)azetidin-1-yl)pyridin-3-yl)-7-(2-(((3-fluoropyridin-2-yl)oxy)methyl)pyrrolidin-1-yl)-6-methyl-4-oxo-1,4-dihydroquinoline-3-carboxylic acid] it is ≤ 1000 nM.
As to `O=C(O)c1cn(-c2cnc3cc[nH]c3n2)c2cc(N3CCC[C@@H]3COc3ncccc3Cl)c(Cl)cc2c1=O` [Example 530, (R)-6-chloro-7-(2-(((3-chloropyridin-2-yl)oxy)methyl)pyrrolidin-1-yl)-4-oxo-1-(5H-pyrrolo[2,3-b]pyrazin-3-yl)-1,4-dihydroquinoline-3-carboxylic acid], the IC50 was ≤ 1000 nM.
Next, `O=C(O)c1cn(-c2ccc(N3CCC3=O)nc2)c2nc(N3CCC[C@@H]3COc3ncccc3Cl)c(Cl)cc2c1=O` [Example 531, (R)-6-chloro-7-(2-(((3-chloropyridin-2-yl)oxy)methyl)pyrrolidin-1-yl)-4-oxo-1-(6-(2-oxoazetidin-1-yl)pyridin-3-yl)-1,4-dihydro-1,8-naphthyridine-3-carboxylic acid]: ≤ 1000 nM.
For `CN(C)C1CN(c2ccc(-n3cc(C(=O)O)c(=O)c4cc(Cl)c(N5CCC[C@@H]5COc5ncccc5Cl)nc43)cn2)C1` [Example 532, (R)-6-chloro-7-(2-(((3-chloropyridin-2-yl)oxy)methyl)pyrrolidin-1-yl)-1-(6-(3-(dimethylamino)azetidin-1-yl)pyridin-3-yl)-4-oxo-1,4-dihydro-1,8-naphthyridine-3-carboxylic acid], the IC50 is ≤ 1000 nM.
The figure for `Cc1cc2c(=O)c(C(=O)O)cn(-c3ccc(N4CC(N(C)C)C4)nc3)c2cc1N1CCC[C@@H]1COc1ncccc1Cl` [Example 533, (R)-7-(2-(((3-chloropyridin-2-yl)oxy)methyl)pyrrolidin-1-yl)-1-(6-(3-(dimethylamino)azetidin-1-yl)pyridin-3-yl)-6-methyl-4-oxo-1,4-dihydroquinoline-3-carboxylic acid] is ≤ 1000 nM.

Values taken from patent US12662491B2 (Redona Therapeutics, Inc., priority 2020, dated 2026).
